# Like-named read-outs stand apart in the source and are kept apart here.
# How the values were obtained:
# [1] = target: T1, SSR3 (Homo sapiens, UniProt Q9UNL2); assay: Viral trapping in VLPs, MS analysis; assay type: binding; conditions: all proteins (incl. low confidence identifications)
# T1 construct: endogenous in cells; host or cells: HEK293T
# Method: (§1) For mass spectrometry, 10^7 HEK293T cells were seeded in five flasks (75 cm^2) and transfected the next day with a total of 15 μg DNA per flask using polyethylene imine reagent. The following DNA quantities were used per flask: 7.5 μg of GAG-eDHFR, 5.4 μg of mock vector and 2.1 μg of a 50/50 mix of pMD2.G and pcDNA3-FLAG-VSV-G. The small molecule fusions were added immediately after transfection to the producing cells at a concentration of 1 μM. The same dilution of dimethyl sulfoxide (DMSO) was added in control experiments to control the effect of this chemical on the cells. The cellular supernatant was harvested after 32 hours and was centrifuged for 3 minutes at 450×g to remove cellular debris. The cleared supernatant was then filtered using 0.45 μm filters (Millipore). A total of 100 μl MyOne™ Streptavidin T1 beads (Life Technologies) pre-loaded with 10 μg ANTI-FLAG® BioM2-Biotin antibody (Sigma-Aldrich®) was used to bind the tagged particles. Particles were allowed to bind for 2 hours by end-over-end rotation. The total supernatant was processed in three consecutive binding steps. Bead-particle complexes were washed once with washing buffer (TWB: 20 mM Tris-HCl pH 7.5, 150 mM NaCl) and were then eluted with FLAG peptide (200 μg/ml in TWB) and lysed by addition of SDS to a final concentration of 0.1%. After 5 minutes, SDS was removed using HiPPR Detergent Removal Spin Columns (Pierce, Thermo Scientific) followed by boiling and overnight digestion with 0.5 μg sequence-grade trypsin (Promega). After acidification (0.1% TFA final), the peptides were separated by nano-LC and directly analyzed with a Q Exactive instrument (Thermo Scientific).
# (§2) For tamoxifen, four biological repeats were performed where the cells were treated with MTX-PEG6-tamoxifen after transfection. The obtained protein lists after viral trapping and MS analysis were challenged with protein lists coming from the four DMSO controls, the 19 control experiments and the lists obtained for the MTX-PEG6-simvastatin and MTX-PEG6-reversine (see below) for a total of 30 samples.
# [2] = target: T2, SEC61B (Homo sapiens, UniProt P60468); assay: Viral trapping in VLPs, MS analysis; assay type: binding; conditions: all proteins (incl. low confidence identifications)
# T2 construct: endogenous in cells; host or cells: HEK293T
# T2 sequence (P60468 2-96 limits assumed): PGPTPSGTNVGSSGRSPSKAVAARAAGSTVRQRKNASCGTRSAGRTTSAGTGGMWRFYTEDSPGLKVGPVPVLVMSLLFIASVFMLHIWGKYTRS
# T2 sequence (P61619 whole entry partner): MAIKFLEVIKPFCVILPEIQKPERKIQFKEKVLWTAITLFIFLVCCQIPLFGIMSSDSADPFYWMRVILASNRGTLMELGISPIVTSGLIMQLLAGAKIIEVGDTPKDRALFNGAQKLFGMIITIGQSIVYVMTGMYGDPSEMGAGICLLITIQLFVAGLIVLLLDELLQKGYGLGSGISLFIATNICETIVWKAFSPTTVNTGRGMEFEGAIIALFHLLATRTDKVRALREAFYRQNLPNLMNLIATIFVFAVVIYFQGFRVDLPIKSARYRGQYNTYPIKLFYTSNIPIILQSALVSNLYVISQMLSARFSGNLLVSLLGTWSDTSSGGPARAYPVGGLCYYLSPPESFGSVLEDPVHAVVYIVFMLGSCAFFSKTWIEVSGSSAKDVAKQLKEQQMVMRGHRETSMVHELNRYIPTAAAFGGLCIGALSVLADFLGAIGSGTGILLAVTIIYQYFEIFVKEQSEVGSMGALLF
# T2 sequence (P60059 whole entry partner): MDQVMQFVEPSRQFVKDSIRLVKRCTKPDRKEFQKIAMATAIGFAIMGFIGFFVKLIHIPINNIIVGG
# Method: as §1, §2
# [3] = target: T3, TBL2 (Homo sapiens, UniProt Q9Y4P3); assay: Viral trapping in VLPs, MS analysis; assay type: binding
# T3 construct: endogenous in cells; host or cells: HEK293T
# T3 sequence (Q9Y4P3 whole entry): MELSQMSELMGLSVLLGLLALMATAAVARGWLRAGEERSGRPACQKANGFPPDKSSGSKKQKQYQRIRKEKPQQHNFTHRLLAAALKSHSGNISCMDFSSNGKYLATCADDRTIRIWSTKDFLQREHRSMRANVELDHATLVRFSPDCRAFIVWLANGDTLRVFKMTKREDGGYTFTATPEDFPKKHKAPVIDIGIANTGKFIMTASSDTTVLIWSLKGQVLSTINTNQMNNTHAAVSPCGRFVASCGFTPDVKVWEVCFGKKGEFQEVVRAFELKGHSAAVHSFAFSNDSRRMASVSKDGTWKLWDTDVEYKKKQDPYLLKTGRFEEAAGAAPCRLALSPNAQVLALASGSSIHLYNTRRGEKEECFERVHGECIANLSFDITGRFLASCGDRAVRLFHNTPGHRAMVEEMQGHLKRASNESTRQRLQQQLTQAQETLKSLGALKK
# Method: as §1, §2
# [4] = target: T4, WDR36 (Homo sapiens, UniProt Q8NI36); assay: Viral trapping in VLPs, MS analysis; assay type: binding; conditions: all proteins (incl. low confidence identifications)
# T4 construct: endogenous in cells; host or cells: HEK293T
# T4 sequence (Q8NI36 whole entry): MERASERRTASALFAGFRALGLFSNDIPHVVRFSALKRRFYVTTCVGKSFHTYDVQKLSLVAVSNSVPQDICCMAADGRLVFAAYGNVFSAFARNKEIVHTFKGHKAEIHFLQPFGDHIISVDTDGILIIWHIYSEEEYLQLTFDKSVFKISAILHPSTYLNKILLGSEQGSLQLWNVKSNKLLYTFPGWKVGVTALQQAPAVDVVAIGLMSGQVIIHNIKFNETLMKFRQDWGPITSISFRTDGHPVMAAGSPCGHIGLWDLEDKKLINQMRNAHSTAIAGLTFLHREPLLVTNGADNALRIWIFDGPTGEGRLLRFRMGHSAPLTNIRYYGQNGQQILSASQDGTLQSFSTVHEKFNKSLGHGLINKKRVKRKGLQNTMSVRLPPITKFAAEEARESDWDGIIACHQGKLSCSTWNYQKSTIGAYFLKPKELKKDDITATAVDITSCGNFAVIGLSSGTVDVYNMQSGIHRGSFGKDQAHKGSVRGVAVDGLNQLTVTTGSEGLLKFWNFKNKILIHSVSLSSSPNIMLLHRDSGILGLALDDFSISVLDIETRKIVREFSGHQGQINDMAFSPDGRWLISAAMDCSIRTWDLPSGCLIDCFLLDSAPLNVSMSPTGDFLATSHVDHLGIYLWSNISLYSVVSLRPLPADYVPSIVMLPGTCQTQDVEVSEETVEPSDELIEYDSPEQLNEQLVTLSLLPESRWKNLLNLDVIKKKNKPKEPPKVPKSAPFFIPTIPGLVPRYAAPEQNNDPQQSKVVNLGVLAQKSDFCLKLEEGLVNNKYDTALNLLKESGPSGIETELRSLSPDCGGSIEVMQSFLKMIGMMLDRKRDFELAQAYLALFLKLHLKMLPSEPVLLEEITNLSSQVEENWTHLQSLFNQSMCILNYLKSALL
# Method: as §1, §2
# [5] = target: T5, ESYT2 (Homo sapiens, UniProt A0FGR8); assay: Viral trapping in VLPs, MS analysis; assay type: binding
# T5 construct: endogenous in cells; host or cells: HEK293T
# T5 sequence (A0FGR8 whole entry): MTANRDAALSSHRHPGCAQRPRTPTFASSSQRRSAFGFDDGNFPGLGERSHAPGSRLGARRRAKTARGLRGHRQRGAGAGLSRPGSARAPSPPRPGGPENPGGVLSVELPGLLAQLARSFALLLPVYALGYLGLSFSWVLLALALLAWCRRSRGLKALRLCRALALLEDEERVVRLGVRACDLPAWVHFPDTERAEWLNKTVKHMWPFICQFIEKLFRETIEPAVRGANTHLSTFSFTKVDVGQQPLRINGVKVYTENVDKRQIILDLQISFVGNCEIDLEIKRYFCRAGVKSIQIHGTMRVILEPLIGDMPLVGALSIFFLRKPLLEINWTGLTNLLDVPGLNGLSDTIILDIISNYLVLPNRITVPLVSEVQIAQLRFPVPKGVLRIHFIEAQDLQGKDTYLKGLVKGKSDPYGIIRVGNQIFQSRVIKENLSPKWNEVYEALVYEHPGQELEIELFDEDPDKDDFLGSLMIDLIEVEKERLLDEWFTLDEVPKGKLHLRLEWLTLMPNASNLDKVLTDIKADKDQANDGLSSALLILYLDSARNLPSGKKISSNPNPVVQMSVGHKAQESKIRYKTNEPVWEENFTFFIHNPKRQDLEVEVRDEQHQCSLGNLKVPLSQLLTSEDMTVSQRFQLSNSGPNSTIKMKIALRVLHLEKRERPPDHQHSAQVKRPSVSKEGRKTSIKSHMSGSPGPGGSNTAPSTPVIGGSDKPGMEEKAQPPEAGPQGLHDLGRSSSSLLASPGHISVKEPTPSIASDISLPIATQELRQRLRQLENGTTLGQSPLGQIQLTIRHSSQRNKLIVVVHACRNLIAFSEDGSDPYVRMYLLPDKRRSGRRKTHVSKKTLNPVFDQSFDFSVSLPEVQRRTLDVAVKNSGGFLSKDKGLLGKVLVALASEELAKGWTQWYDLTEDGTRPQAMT
# Method: as §1, §2
# [6] = target: T6, TMPRSS13 (Homo sapiens, UniProt Q9BYE2); assay: Viral trapping in VLPs, MS analysis; assay type: binding; conditions: all proteins (incl. low confidence identifications)
# T6 construct: endogenous in cells; host or cells: HEK293T
# T6 sequence (Q9BYE2 whole entry): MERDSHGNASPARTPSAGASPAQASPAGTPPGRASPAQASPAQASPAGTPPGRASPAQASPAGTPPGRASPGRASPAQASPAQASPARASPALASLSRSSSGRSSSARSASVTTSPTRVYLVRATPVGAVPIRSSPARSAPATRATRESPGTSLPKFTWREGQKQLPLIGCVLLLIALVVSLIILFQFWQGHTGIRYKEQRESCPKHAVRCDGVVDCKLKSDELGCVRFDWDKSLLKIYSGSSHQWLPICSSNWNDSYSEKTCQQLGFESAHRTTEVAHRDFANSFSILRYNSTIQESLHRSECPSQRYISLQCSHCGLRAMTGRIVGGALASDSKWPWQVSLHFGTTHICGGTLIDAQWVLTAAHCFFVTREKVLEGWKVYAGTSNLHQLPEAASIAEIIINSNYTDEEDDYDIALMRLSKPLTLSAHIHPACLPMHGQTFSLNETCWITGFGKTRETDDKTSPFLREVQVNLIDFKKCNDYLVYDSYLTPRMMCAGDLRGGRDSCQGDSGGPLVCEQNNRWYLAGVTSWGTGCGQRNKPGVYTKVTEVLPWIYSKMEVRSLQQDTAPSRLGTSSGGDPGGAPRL
# Method: as §1, §2
# [7] = target: T7, MDH2 (Homo sapiens, UniProt P40926); assay: Viral trapping in VLPs, MS analysis; assay type: binding
# T7 construct: endogenous in cells; host or cells: HEK293T
# T7 sequence (P40926 25-338): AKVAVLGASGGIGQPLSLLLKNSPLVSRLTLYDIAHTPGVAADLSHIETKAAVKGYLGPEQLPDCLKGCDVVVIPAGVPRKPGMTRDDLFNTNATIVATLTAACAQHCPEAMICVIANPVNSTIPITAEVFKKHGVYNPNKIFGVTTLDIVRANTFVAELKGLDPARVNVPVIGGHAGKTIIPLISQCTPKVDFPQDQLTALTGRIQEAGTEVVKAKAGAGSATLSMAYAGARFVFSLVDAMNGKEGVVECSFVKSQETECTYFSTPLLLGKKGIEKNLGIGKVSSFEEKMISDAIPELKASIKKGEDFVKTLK
# Method: as §1, §2
# [8] = target: T8, CYP51A1 (Homo sapiens, UniProt Q16850); assay: Viral trapping in VLPs, MS analysis; assay type: binding; conditions: all proteins (incl. low confidence identifications)
# T8 construct: endogenous in cells; host or cells: HEK293T
# T8 sequence (Q16850 whole entry): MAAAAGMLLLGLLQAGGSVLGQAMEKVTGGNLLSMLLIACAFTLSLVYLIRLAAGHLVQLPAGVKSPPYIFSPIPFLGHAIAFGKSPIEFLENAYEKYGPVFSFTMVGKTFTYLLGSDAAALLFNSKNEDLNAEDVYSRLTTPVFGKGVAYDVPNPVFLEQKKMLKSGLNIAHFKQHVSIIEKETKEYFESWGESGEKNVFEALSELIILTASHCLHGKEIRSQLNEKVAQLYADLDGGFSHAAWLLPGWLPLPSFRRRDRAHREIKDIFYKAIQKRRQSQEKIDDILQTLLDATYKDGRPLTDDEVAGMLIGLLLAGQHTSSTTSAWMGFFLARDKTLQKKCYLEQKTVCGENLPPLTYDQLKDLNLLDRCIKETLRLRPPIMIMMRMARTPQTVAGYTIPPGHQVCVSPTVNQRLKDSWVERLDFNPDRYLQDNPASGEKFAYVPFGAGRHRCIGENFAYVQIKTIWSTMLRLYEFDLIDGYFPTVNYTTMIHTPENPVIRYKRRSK
# Method: as §1, §2
# [9] = target: T9, ATL2 (Homo sapiens, UniProt Q8NHH9); assay: Viral trapping in VLPs, MS analysis; assay type: binding; conditions: all proteins (incl. low confidence identifications)
# T9 construct: endogenous in cells; host or cells: HEK293T
# T9 sequence (Q8NHH9 whole entry): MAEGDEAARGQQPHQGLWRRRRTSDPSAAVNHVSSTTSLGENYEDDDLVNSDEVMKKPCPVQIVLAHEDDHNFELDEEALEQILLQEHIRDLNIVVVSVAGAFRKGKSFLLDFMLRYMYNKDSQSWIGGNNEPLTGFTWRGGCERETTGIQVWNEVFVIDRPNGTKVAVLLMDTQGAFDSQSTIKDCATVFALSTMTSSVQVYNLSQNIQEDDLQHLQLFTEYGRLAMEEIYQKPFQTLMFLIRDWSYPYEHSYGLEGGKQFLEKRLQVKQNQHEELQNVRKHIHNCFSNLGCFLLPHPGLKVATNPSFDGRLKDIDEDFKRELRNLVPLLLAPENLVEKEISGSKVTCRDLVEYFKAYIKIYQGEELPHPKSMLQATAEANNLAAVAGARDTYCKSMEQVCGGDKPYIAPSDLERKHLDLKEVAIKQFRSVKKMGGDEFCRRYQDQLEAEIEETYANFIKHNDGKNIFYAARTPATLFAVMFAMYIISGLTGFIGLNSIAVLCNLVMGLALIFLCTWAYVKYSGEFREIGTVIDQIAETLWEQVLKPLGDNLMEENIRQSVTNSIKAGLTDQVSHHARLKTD
# Method: as §1, §2
# [10] = target: T10, EI24 (Homo sapiens, UniProt O14681); assay: Viral trapping in VLPs, MS analysis; assay type: binding; conditions: all proteins (incl. low confidence identifications)
# T10 construct: endogenous in cells; host or cells: HEK293T
# Method: as §1, §2
# [11] = test system: FAM62A
# Method: as §1, §2
# [12] = test system: C28H10ORF35; conditions: all proteins (incl. low confidence identifications)
# Method: as §1, §2
# [13] = test system: PRSS3; conditions: all proteins (incl. low confidence identifications)
# Method: as §1, §2
# [14] = all proteins (incl. low confidence identifications)
# [15] = proteins identified with >1 peptide (high confidence)
smiles,measurement,setting,value
CCC(=C(c1ccccc1)c1ccc(OCCN(C)Cc2cn(CCOCCOCCOCCOCCOCCNC(=O)CCC(NC(=O)c3ccc(N(C)Cc4cnc5nc(N)nc(N)c5n4)cc3)C(=O)O)nn2)cc1)c1ccccc1 (centres unmarked) [MTX-PEG6-tamoxifen],Recurrence (x/4),[1],1 x/4
same,Recurrence (x/4),[2],1 x/4
same,Recurrence (x/4),[3]; [14],3 x/4
same,Recurrence (x/4),[3]; [15],2 x/4
same,Recurrence (x/4),[4],1 x/4
same,Recurrence (x/4),[5]; [14],1 x/4
same,Recurrence (x/4),[5]; [15],1 x/4
same,Recurrence (x/4),[6],1 x/4
same,Recurrence (x/4),[7]; [14],1 x/4
same,Recurrence (x/4),[7]; [15],1 x/4
same,Recurrence (x/4),[8],1 x/4
same,Recurrence (x/4),[9],1 x/4
same,Recurrence (x/4),[10],2 x/4
same,Recurrence (x/4),[11]; [14],1 x/4
same,Recurrence (x/4),[11]; [15],1 x/4
same,Recurrence (x/4),[12],1 x/4
same,Recurrence (x/4),[13],1 x/4
